Data taken from PMC10864275, “Binding kinetics drive G protein subtype selectivity at the β1-adrenergic receptor” (Nature Communications, 2024).

Molecular target: T1, β1AR-E signalling via Gs (Meleagris gallopavo, UniProt P07700, C116L/C358A/DEL244-271/F327A/F338A/M179L/M281A/M44L/M48L/R68S)
T1 construct: expressed in transfected cells; host or cells: HEK293T
Assay type: cell-based, turkey
Settings: G protein not given
Excerpt: We next assessed G protein coupling using the TRUPATH BRET2 biosensor assay[46] (Supplementary Fig. 2c) expressed in HEK293T cells, allowing examination of signalling via the canonical coupling partner Gs. […] Therefore, the TRUPATH and ligand binding assays confirmed that reversal of the thermostabilising mutation increased receptor activity without impacting ligand affinity. Also, although less efficacious, the thermostabilised β1AR-W construct still retained functional G protein coupling.
For Gq, a constitutively active mutated version (R183Q) was used to increase the sensitivity for detection of Gq activation. After 24 h, cells were harvested and seeded onto PLL-coated white 96-well plates (Greiner Bio-One) at a density of 50,000 cells per well. […] The plate was then incubated for 10 min at room temperature in the dark.

T1 sequence (P07700 other isoform, or with tags, fused parts or gaps with the stated changes): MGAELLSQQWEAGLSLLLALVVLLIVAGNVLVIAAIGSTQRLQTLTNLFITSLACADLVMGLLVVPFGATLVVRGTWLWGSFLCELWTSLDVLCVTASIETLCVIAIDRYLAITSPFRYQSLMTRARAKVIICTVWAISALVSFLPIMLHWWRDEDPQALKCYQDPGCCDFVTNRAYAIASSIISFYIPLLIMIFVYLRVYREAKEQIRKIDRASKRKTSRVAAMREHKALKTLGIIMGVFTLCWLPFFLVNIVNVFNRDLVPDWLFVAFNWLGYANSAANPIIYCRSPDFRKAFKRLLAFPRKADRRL

Compound | potency in TRUPATH assays relative to isoprenaline
O=C(NCCNCC(O)COc1ccc(O)cc1)N1CCOCC1 (centres unmarked) [Xam., xamoterol] | decreased potency
CC(C)(C)NCC(O)c1ccc(O)c(CO)c1 (centres unmarked) [Sal., salbutamol] | decreased potency
